Experimental findings from ChEMBL document CHEMBL1122771, “Effects of volume and surface property in hydrolysis by acetylcholinesterase. The trimethyl site” (J Med Chem, 1984) are described below.

By Km is commonly meant the substrate concentration at which the rate is half of its maximum.

The nature of series [1]: Compound was tested for hydrolysis by acetylcholinesterase and the kinetic constant (kcat) which is a first-order rate constant was determined.
The test system of series [2] is acetylcholinesterase. In words: Compound was tested for hydrolysis by acetylcholinesterase and the kinetic constant, (Km) an apparent dissociation constant, and related to the enzyme's affinity for the substrate was reported. Type of series: ADME.
For series [3], the system named is acetylcholinesterase. In words: in vitro.

`CC(=O)OCCS(C)(=O)=O` showed a k cat in series [1] of 11 s⁻¹. The Km with acetylcholinesterase [2] amounted to 6.2 mM.

In series [1], `CC(=O)OCCCl` displayed a k cat of 3400 s⁻¹. Further, the Km in the series with acetylcholinesterase [3] (acetylcholinesterase) worked out at 14 mM.

As for `CC(=O)OCCC(C)C`, the k cat in series [1] came to 3400 s⁻¹. Moreover, the Km with acetylcholinesterase [3] (acetylcholinesterase) worked out at 3.6 mM.

As for `CC(=O)OCCBr`, the k cat in series [1] was found to be 4500 s⁻¹. In addition, in the series with acetylcholinesterase [3] (acetylcholinesterase), the Km was 7.5 mM.

For the molecule `CC(=O)OCCC(C)(C)C`, the k cat in series [1] worked out at 66 s⁻¹. The Km with acetylcholinesterase [2] is 5.3 mM.

As for `CSCCOC(C)=O`, the k cat in series [1] amounted to 3500 s⁻¹. Moreover, the Km with acetylcholinesterase [3] (acetylcholinesterase) was found to be 15 mM.

As to `CC(=O)OCC[N+](C)(C)[O-]`, the k cat in series [1] was found to be 4500 s⁻¹. Also, the Km in the series with acetylcholinesterase [3] (acetylcholinesterase) is 18 mM.

In turn, `CC(=O)OCC[S+](C)[O-]` (stereo not given) showed a k cat in series [1] of 3800 s⁻¹. Besides, the Km in the series on acetylcholinesterase [3] (acetylcholinesterase) came to 16 mM.

With `CC(=O)OCC[Si](C)(C)C`, the k cat in series [1] stood at 5700 s⁻¹. In addition, the Km in the series with acetylcholinesterase [3] (acetylcholinesterase) is 3.5 mM.

In series [1], `CC(=O)OCC[S+](C)C.[Br-]` displayed a k cat of 7700 s⁻¹. In the series with acetylcholinesterase [3] (acetylcholinesterase), the Michaelis-Menten constant (Km) worked out at 0.33 mM.

In series [1], `CCCCOC(C)=O` [ACETIC ACID BUTYL ESTER] came in with a k cat of 36 s⁻¹. Further, in the series on acetylcholinesterase [3], the Km turned out to be 13 mM.

With `CC(=O)OCC[N+](C)(C)C` [ACETYLCHOLINE], in series [1], the k cat is 160 s⁻¹. Also, the Km in the series on acetylcholinesterase [2] amounted to 0.33 mM.

Consider `CCOC(C)=O` [ETHYL ACETATE], for which, in series [1], the k cat worked out at 2900 s⁻¹.
